Results reported in US9365491B2, “Inhibitors of cognitive decline” (COGNITION THERAPEUTICS, INC., priority 2009, dated 2016).
Entries after “also recorded” stand apart in the source; their conditions may differ.

What was measured:
[1] = system: Abeta oligomer effects on membrane trafficking in mature primary neurons; assay: Primary neuron-based functional screening assay (membrane trafficking/exocytosis, Example DD); format: cell-based, rat; conditions: for activity in blocking the effects of Abeta oligomers on membrane trafficking: compound added to neurons before oligomers
Excerpt: Primary rat neurons grown for at least 3 weeks in vitro were chosen as the basis for this screening assay. […] More complex systems such as acute or organotypic brain slices are very useful but not amenable to high throughput screening. […] For this reason, primary neuronal cultures were chosen because of their ability to be used in high throughput screens and fidelity to what occurs in vivo.
(Scale bar=20 microns in FIG. 1A). […] (FIG. 1B).
The MTT assay can be used as a measure of toxicity in cultures. Yellow tetrazolium salts were endocytosed by cells and reduced to insoluble purple formazan in the endosomal pathway. The level of purple formazan was a reflection of the number of actively metabolizing cells in culture, and reduction in the amount of formazan was taken as a measure of cell death or metabolic toxicity in culture.
The exocytosis assay was adapted for use with mature primary neuronal cultures grown for 3 weeks in vitro.
Compounds were added to neurons first, then oligomers were added.
Data were the average of 3 experiments. Scale bar=20 micron in FIG. 2D.

[2] = system: Abeta oligomer-mediated memory deficits; assay: Fear conditioning assay (Example EE); format: in vivo, mice
Method: Compound Example 2 was tested in an animal model of a memory-dependent behavioral task known as fear conditioning. The study protocol was designed based on published protocols (See e.g. Puzzo D, Privitera L, Leznik E, Fà M, Staniszewski A, Palmeri A, Arancio O. Picomolar amyloid-beta positively modulates synaptic plasticity and memory in hippocampus. J Neurosci. 2008 Dec. 31; 28(53)14537-45.). The formation of contextual memories is dependent upon the integrity of medial temporal lobe structures such as the hippocampus. In this assay mice were trained to remember that a particular salient context (conditioned stimulus; CS) is associated with an aversive event, in this case a mild foot shock (the unconditioned stimulus, US). Animals that show good learning will express an increase in freezing behavior when placed back into the same context. This freezing is absent in a novel context. Increased freezing in the context indicates strong hippocampal-dependent memory formation in animals. Memory tested in Fear Conditioning is sensitive to elevations of soluble Aβ. […] The fear condition model for memory was performed as described herein.

[3] = system: Abeta assemblies isolated from AD patients or normal individuals; assay: Membrane trafficking assay with patient-derived Abeta assemblies (Example FF); format: cell-based; conditions: FIG. 4
Method: Abeta assemblies were isolated from patients with Alzheimer's Disease (AD) or from normal patients. The Abeta assemblies were tested for their ability to modulate membrane trafficking. […] (FIG. 4). […] Compound Example 2 has no effect on Abeta assemblies isolated from Age-matched normal individuals. (FIG. 4). […] (FIG. 4).

[4] = system: Abeta oligomer-induced acceleration of exocytosis in primary neurons; assay: Exocytosis assay/MTT assay (Example AA); format: cell-based, rat; conditions: Primary neuron
Method: Primary neurons from E18 Sprague-Dawley rat embryos are plated at optimized concentrations in 384 well plates in NB media (Invitrogen). Neurons are maintained in cultures for 3 weeks, with twice weekly feeding of NB media with N2 supplement (Invitrogen). A test compound is added to cells, followed by addition of Vehicle or Abeta oligomer preparations (1.5 μM), and incubated for 1 to 24 hr at 37° C. in 5% CO2. MTT reagent (3-(4,5-dimethylthizaol-2yl)-2,5diphenyl tetrazolium bromide) (Roche Molecular Biochemicals) is reconstituted in phosphate buffered saline to 5 mg/mL. 10 μL of MTT labeling reagent is added to each well and incubated at 37° C. for 1 h, then imaged.
Each assay plate is formatted so that compounds are tested with and without Abeta on each plate. […] Statistical performance of the screening plate layout are assessed, screening will be initiated if the current performance is maintained. […]
Optimal cell density is determined based on cellular response to Abeta oligomers using the exocytosis assay as a readout, and immunohistochemical analysis of the relative proportion of glia to neurons in the cultures. Cultures are monitored on a weekly basis with immunohistochemistry and image processing-based quantification to monitor the percentage of the cultures that are neurons vs. glia (Glial cells). […]

Abeta 1-42 Oligomers = target: T1, Abeta 1-42 Oligomers (Homo sapiens, UniProt P05067); assay: Binding assay (Example BB): Abeta oligomer binding to neurons, image processing; conditions: imaging processing algorithm
T1 construct: Human amyloid peptide 1-42 is obtained from California Peptide; purchased California Peptide
T1 sequence (P05067 672-713): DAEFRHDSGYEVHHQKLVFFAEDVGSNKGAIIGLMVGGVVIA
Method: Each test compound was added to a plate followed by an addition of one or more of Abeta 1-42 Oligomers. The plates were fixed with 3.7% paraformaldehyde in phosphate buffered saline (PBS) for 15 min. The plate was then washed 3× with PBS for 5 min each. The plates were blocked at room temperature for 1 hour in 5% goat serum and 0.5% Triton X-100 (CAS number: 9002-93-1) in PBS. Primary antibodies (anti-MAP 2 polyclonal, Millipore #AB5622 and anti-Beta Amyloid 6E10 monoclonal, Convance #SIG-39300) were diluted 1:1000 in 5% goat serum with PBS. Primary antibodies were incubated either overnight at 4° C. or 1 hour at RT. The plate was then washed 3× with PBS for 5 min each. Secondary antibodies (Alex Flor 488 polyclonal, Invitrogen #A11008 and Alexa Flor 647 monoclonal, Invitrogen #A21235) were diluted 1:1000 in 5% goat serum with PBS. Secondary antibodies were incubated at RT for 1 hr. The plates were washed once with PBS. […]
Human amyloid peptide 1-42 is obtained from California Peptide, with lot-choice contingent upon quality control analysis. […] Toxicity is monitored in each image-based assay via quantification of nuclear morphology visualized with the DNA binding dye DAPI (Invitrogen). […]
Images were captured and analyzed with the Cellomics VTI automated microscope platform, using the Neuronal Profiling algorithm. […]

[5] = Pharmacokinetic studies (Example CC), plasma; format: in vivo; conditions: rat, iv, rats, injected intravenously at 1 mg/Kg
Method: PK studies are performed at CEREP Inc of Redmond Wash., according to their standard protocols: The plasma samples were processed using acetonitrile precipitation and analyzed by HPLC-MS or HPLC-MS/MS. Peak areas were recorded, and the concentrations of the test compound in the unknown plasma samples were determined using the respective calibration curve. The reportable linear range of the assay was determined, along with the lower limit of quantitation (LLQ).
Pharmacokinetic studies were performed according to the following protocols: The plasma samples were processed using acetonitrile precipitation and analyzed by HPLC-MS or HPLC-MS/MS. Peak areas were recorded, and the concentrations of the test compound in the unknown plasma samples were determined using the respective calibration curve. The reportable linear range of the assay was determined, along with the lower limit of quantitation (LLQ).

Structure (SMILES): C[N+](C)(C)CCCCCC[N+](C)(C)C [hexamethonium bromide, reference compound]
- activity in blocking the effects of Abeta oligomers on membrane trafficking [1]: none were active

Structure (SMILES): O[C@H]1[C@H](O)[C@@H](O)[C@H](O)[C@@H](O)[C@@H]1O [scyllo-inositol, reference compound]
- activity in blocking the effects of Abeta oligomers on membrane trafficking [1]: none were active

Structure (SMILES): C[C@]12N[C@H](Cc3ccccc31)c1ccccc12 [MK-801, reference compound]
- activity in blocking the effects of Abeta oligomers on membrane trafficking [1]: none were active

Structure (SMILES): COc1cc(CCC(C)NCc2ccc(C(F)(F)F)cc2)ccc1O (stereo not drawn) [Compound Example 2, 4-(3-(4-(trifluoromethyl)benzylamino)butyl)-2-methoxyphenol]
- effect on Abeta oligomer-mediated memory deficits ([2]; 2 pmol dose, given prior to Abeta (200 nM), contextual fear conditioning, FIG. 3 bar d): completely blocked
- block of oligomer effects on memory across doses ([2]; administered prior to Abeta oligomer administration): blocked oligomer effects on memory in a dose-dependent manner
- adverse behavioral changes ([2]; any dose): No adverse behavioral changes were observed
- effect of compound alone on memory ([2]; no Abeta, data not shown): No effect
- EC50 ([1]; Rattus norvegicus, Primary neuron, 504 h, FIG. 2B, primary neurons 3 weeks in vitro, read-out: EC50 for inhibition of oligomer effects on membrane trafficking): 7 µM
- activity in blocking the effects of Abeta oligomers on membrane trafficking [1]: inhibits oligomer effects on membrane trafficking; also recorded: effective
- effect on trafficking effects of AD-brain derived Abeta assemblies ([3]; IMW (10-100 KDa) assemblies from AD patients): significantly blocked
- effect on Abeta assemblies isolated from Age-matched normal individuals ([3]; IMW assemblies from normal individuals): no effect

Structure (SMILES): CC12CC3CC(C)(C1)CC(N)(C3)C2 [Memantine, memantine, reference compound]
- inhibition at 28 µM ([4]; Rattus norvegicus, 28 μM memantine, control on each plate, read-out: inhibition of oligomer effects): 50%

Structure (SMILES): COc1cc(CCC(C)NCc2ccc(Cl)cc2)ccc1O (stereo not drawn) [Compound Example 1, 4-(3-(4-chlorobenzylamino)butyl)-2-methoxyphenol]
- partial block of binding of the Abeta oligomer ligand to neurons (Abeta 1-42 Oligomers): 24%
- half-life [5]: 46 min
- EC50 ([4]; MTT assay, primary rat neurons, Abeta oligomers 1.5 μM, read-out: EC50 for block of Abeta oligomer-induced acceleration of exocytosis): 10 µM
